# Test results from US20100099561A1, “HETEROBICYCLIC ALKYLTHIO-BRIDGED ISOXAZOLINES” (E.I. DU PONT DE NEMOURS AND COMPANY, priority 2008, published 2010).
# Tests used:
# Format in all cases: in vivo
# [1] = system: velvetleaf (Abutilon theophrasti); assay: Test A postemergence, velvetleaf; conditions: 0 to 100 scale (0 no effect, 100 complete control)
# Method in brief: (§1)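 Scores reflect visual plant injury on a 0 (no effect) to 100 (complete control) scale, assessed about ten days after application in the greenhouse. Compounds were delivered in a non-phytotoxic solvent blend with surfactant, either preemergence to soil or postemergence at one- to two-leaf stage.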
# corn (Zea mays) [2] = assay: Test A postemergence, corn; conditions: 0 to 100 scale (0 no effect, 100 complete control)
# Method in brief: as §1
# [3] = system: barnyardgrass (Echinochloa crus-galli); assay: Test A preemergence, barnyardgrass; conditions: 0 to 100 scale (0 no effect, 100 complete control)
# Method in brief: as §1
# corn (Zea mays) [4] = assay: Test A preemergence, corn; conditions: 0 to 100 scale (0 no effect, 100 complete control)
# Method in brief: as §1
# rice (Oryza sativa) = assay: Test B flooded paddy test, rice; conditions: Flood, scale 0 to 100
# Method in brief: (§2)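 Compounds were added directly to paddy water over 2-leaf-stage plants in pots flooded 3 cm above soil, water depth maintained. Visual injury scored against controls after 13 to 15 days in greenhouse, 0 (none) to 100 (complete control); dash indicates no result.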
# [5] = system: barnyardgrass (Echinochloa crus-galli); assay: Test A postemergence, barnyardgrass; conditions: 0 to 100 scale (0 no effect, 100 complete control)
# Method in brief: as §1
# [6] = system: barnyardgrass (Echinochloa crus-galli); assay: Test B flooded paddy test, barnyardgrass; conditions: Flood
# Method in brief: as §2
# [7] = system: morningglory (Ipomoea spp.); assay: Test A postemergence, morningglory; conditions: 0 to 100 scale (0 no effect, 100 complete control)
# Method in brief: as §1
# [8] = system: morningglory (Ipomoea spp.); assay: Test A preemergence, morningglory; conditions: 0 to 100 scale (0 no effect, 100 complete control)
# Method in brief: as §1
# [9] = system: ducksalad (Heteranthera limosa); assay: Test B flooded paddy test, ducksalad; conditions: Flood, scale 0 to 100
# Method in brief: as §2
# [10] = system: velvetleaf (Abutilon theophrasti); assay: Test A preemergence, velvetleaf; conditions: 0 to 100 scale (0 no effect, 100 complete control)
# Method in brief: as §1
# [11] = system: umbrella sedge (Cyperus difformis); assay: Test B flooded paddy test, umbrella sedge; conditions: Flood, scale 0 to 100
# Method in brief: as §2
# [12] = system: giant foxtail (Setaria faberi); assay: Test A preemergence, giant foxtail; conditions: 0 to 100 scale (0 no effect, 100 complete control)
# Method in brief: as §1
# [13] = system: pigweed (Amaranthus retroflexus); assay: Test A postemergence, pigweed; conditions: 0 to 100 scale (0 no effect, 100 complete control)
# Method in brief: as §1
# [14] = system: large crabgrass (Digitaria sanguinalis); assay: Test A preemergence, large crabgrass; conditions: 0 to 100 scale (0 no effect, 100 complete control)
# Method in brief: as §1
# [15] = system: wheat (Triticum aestivum); assay: Test A postemergence, wheat; conditions: 0 to 100 scale (0 no effect, 100 complete control)
# Method in brief: as §1
# [16] = system: giant foxtail (Setaria faberi); assay: Test A postemergence, giant foxtail; conditions: 0 to 100 scale (0 no effect, 100 complete control)
# Method in brief: as §1
# [17] = system: large crabgrass (Digitaria sanguinalis); assay: Test A postemergence, large crabgrass; conditions: 0 to 100 scale (0 no effect, 100 complete control)
# Method in brief: as §1
# [18] = system: wheat (Triticum aestivum); assay: Test A preemergence, wheat; conditions: 0 to 100 scale (0 no effect, 100 complete control)
# Method in brief: as §1
# [19] = system: pigweed (Amaranthus retroflexus); assay: Test A preemergence, pigweed; conditions: 0 to 100 scale (0 no effect, 100 complete control)
# Method in brief: as §1
# [20] = 250 g ai/ha, scale 0 to 100 (0 no effect, 100 complete control)
structure (smiles),measurement,setting,value
CC1(C)CC([S+]([O-])Cc2c(C(F)(F)C(F)(F)F)nc3n(c2=O)CCCC3)=NO1 (stereo not drawn) [Compound 19],"Plant response rating, Velvetleaf",[1]; 125 g ai/ha,0
same,"Plant response rating, Velvetleaf",[1]; 500 g ai/ha,20
same,"Plant response rating, Corn",corn (Zea mays) [2]; 125 g ai/ha,0
same,"Plant response rating, Corn",corn (Zea mays) [2]; 500 g ai/ha,40
same,"Plant response rating, Barnyardgrass",[3]; 125 g ai/ha,0
same,"Plant response rating, Barnyardgrass",[3]; 500 g ai/ha,80
same,"Plant response rating, Corn",corn (Zea mays) [4]; 500 g ai/ha,20
same,"Plant response rating, Rice",rice (Oryza sativa); 31 g ai/ha,0
same,"Plant response rating, Rice",rice (Oryza sativa); 62 g ai/ha,0
same,"Plant response rating, Rice",rice (Oryza sativa); 125 g ai/ha,0
same,"Plant response rating, Rice",rice (Oryza sativa); 250 g ai/ha,0
same,"Plant response rating, Barnyardgrass",[5]; 125 g ai/ha,10
same,"Plant response rating, Barnyardgrass",[5]; 500 g ai/ha,70
same,"Plant response rating, Barnyardgrass","[6]; 31 g ai/ha, scale 0 to 100",0
same,"Plant response rating, Barnyardgrass","[6]; 62 g ai/ha, scale 0 to 100",0
same,"Plant response rating, Barnyardgrass","[6]; 125 g ai/ha, scale 0 to 100",0
same,"Plant response rating, Barnyardgrass",[6]; [20],0
same,"Plant response rating, Morningglory",[7]; 125 g ai/ha,0
same,"Plant response rating, Morningglory",[7]; 500 g ai/ha,20
same,"Plant response rating, Morningglory",[8]; 125 g ai/ha,0
same,"Plant response rating, Morningglory",[8]; 500 g ai/ha,60
same,"Plant response rating, Ducksalad",[9]; 31 g ai/ha,0
same,"Plant response rating, Ducksalad",[9]; 62 g ai/ha,0
same,"Plant response rating, Ducksalad",[9]; 125 g ai/ha,0
same,"Plant response rating, Ducksalad",[9]; 250 g ai/ha,0
same,"Plant response rating, Velvetleaf",[10]; 125 g ai/ha,0
same,"Plant response rating, Velvetleaf",[10]; 500 g ai/ha,0
same,"Plant response rating, Sedge, Umbrella",[11]; 31 g ai/ha,0
same,"Plant response rating, Sedge, Umbrella",[11]; 62 g ai/ha,0
same,"Plant response rating, Sedge, Umbrella",[11]; 125 g ai/ha,0
same,"Plant response rating, Sedge, Umbrella",[11]; 250 g ai/ha,0
same,"Plant response rating, Foxtail, Giant",[12]; 125 g ai/ha,0
same,"Plant response rating, Foxtail, Giant",[12]; 500 g ai/ha,80
same,"Plant response rating, Pigweed",[13]; 125 g ai/ha,0
same,"Plant response rating, Pigweed",[13]; 500 g ai/ha,10
same,"Plant response rating, Crabgrass, Large",[14]; 125 g ai/ha,0
same,"Plant response rating, Crabgrass, Large",[14]; 500 g ai/ha,80
same,"Plant response rating, Wheat",[15]; 125 g ai/ha,0
same,"Plant response rating, Wheat",[15]; 500 g ai/ha,20
same,"Plant response rating, Foxtail, Giant",[16]; 125 g ai/ha,0
same,"Plant response rating, Foxtail, Giant",[16]; 500 g ai/ha,50
same,"Plant response rating, Crabgrass, Large",[17]; 125 g ai/ha,0
same,"Plant response rating, Crabgrass, Large",[17]; 500 g ai/ha,30
same,"Plant response rating, Wheat",[18]; 125 g ai/ha,0
same,"Plant response rating, Wheat",[18]; 500 g ai/ha,20
same,"Plant response rating, Pigweed",[19]; 125 g ai/ha,0
same,"Plant response rating, Pigweed",[19]; 500 g ai/ha,20
Cn1c(=O)c(CS(=O)(=O)C2=NOC(C)(C)C2)nc2ccccc21 [Compound 23],"Plant response rating, Velvetleaf",[1]; 125 g ai/ha,0
same,"Plant response rating, Velvetleaf",[1]; 500 g ai/ha,0
same,"Plant response rating, Corn",corn (Zea mays) [2]; 125 g ai/ha,0
same,"Plant response rating, Corn",corn (Zea mays) [2]; 500 g ai/ha,0
same,"Plant response rating, Barnyardgrass",[3]; 125 g ai/ha,20
same,"Plant response rating, Barnyardgrass",[3]; 500 g ai/ha,40
same,"Plant response rating, Corn",corn (Zea mays) [4]; 125 g ai/ha,0
same,"Plant response rating, Corn",corn (Zea mays) [4]; 500 g ai/ha,0
same,"Plant response rating, Rice",rice (Oryza sativa); 62 g ai/ha,0
same,"Plant response rating, Rice",rice (Oryza sativa); 250 g ai/ha,0
same,"Plant response rating, Barnyardgrass",[5]; 125 g ai/ha,40
same,"Plant response rating, Barnyardgrass",[5]; 500 g ai/ha,60
same,"Plant response rating, Barnyardgrass","[6]; 62 g ai/ha, scale 0 to 100",0
same,"Plant response rating, Barnyardgrass",[6]; [20],0
same,"Plant response rating, Morningglory",[7]; 125 g ai/ha,0
same,"Plant response rating, Morningglory",[7]; 500 g ai/ha,0
same,"Plant response rating, Morningglory",[8]; 125 g ai/ha,0
same,"Plant response rating, Ducksalad",[9]; 62 g ai/ha,0
same,"Plant response rating, Ducksalad",[9]; 250 g ai/ha,0
same,"Plant response rating, Velvetleaf",[10]; 125 g ai/ha,0
same,"Plant response rating, Velvetleaf",[10]; 500 g ai/ha,0
same,"Plant response rating, Sedge, Umbrella",[11]; 62 g ai/ha,0
same,"Plant response rating, Sedge, Umbrella",[11]; 250 g ai/ha,0
same,"Plant response rating, Foxtail, Giant",[12]; 125 g ai/ha,30
same,"Plant response rating, Foxtail, Giant",[12]; 500 g ai/ha,80
same,"Plant response rating, Pigweed",[13]; 125 g ai/ha,0
same,"Plant response rating, Pigweed",[13]; 500 g ai/ha,0
same,"Plant response rating, Crabgrass, Large",[14]; 125 g ai/ha,10
same,"Plant response rating, Crabgrass, Large",[14]; 500 g ai/ha,70
same,"Plant response rating, Wheat",[15]; 125 g ai/ha,0
same,"Plant response rating, Wheat",[15]; 500 g ai/ha,0
same,"Plant response rating, Foxtail, Giant",[16]; 125 g ai/ha,10
same,"Plant response rating, Foxtail, Giant",[16]; 500 g ai/ha,60
same,"Plant response rating, Crabgrass, Large",[17]; 125 g ai/ha,30
same,"Plant response rating, Crabgrass, Large",[17]; 500 g ai/ha,60
same,"Plant response rating, Wheat",[18]; 125 g ai/ha,0
same,"Plant response rating, Wheat",[18]; 500 g ai/ha,0
same,"Plant response rating, Pigweed",[19]; 125 g ai/ha,0
same,"Plant response rating, Pigweed",[19]; 500 g ai/ha,10
Cn1c(=O)c(C[S+]([O-])C2=NOC(C)(C)C2)nc2ccccc21 (stereo not drawn) [Compound 24],"Plant response rating, Velvetleaf",[1]; 125 g ai/ha,0
same,"Plant response rating, Velvetleaf",[1]; 500 g ai/ha,0
same,"Plant response rating, Corn",corn (Zea mays) [2]; 125 g ai/ha,0
same,"Plant response rating, Corn",corn (Zea mays) [2]; 500 g ai/ha,0
same,"Plant response rating, Barnyardgrass",[3]; 125 g ai/ha,0
same,"Plant response rating, Barnyardgrass",[3]; 500 g ai/ha,0
same,"Plant response rating, Corn",corn (Zea mays) [4]; 125 g ai/ha,0
same,"Plant response rating, Corn",corn (Zea mays) [4]; 500 g ai/ha,0
same,"Plant response rating, Rice",rice (Oryza sativa); 62 g ai/ha,30
same,"Plant response rating, Rice",rice (Oryza sativa); 250 g ai/ha,30
same,"Plant response rating, Barnyardgrass",[5]; 125 g ai/ha,0
same,"Plant response rating, Barnyardgrass",[5]; 500 g ai/ha,0
same,"Plant response rating, Barnyardgrass","[6]; 62 g ai/ha, scale 0 to 100",0
same,"Plant response rating, Barnyardgrass",[6]; [20],0
same,"Plant response rating, Morningglory",[7]; 125 g ai/ha,0
same,"Plant response rating, Morningglory",[7]; 500 g ai/ha,0
same,"Plant response rating, Morningglory",[8]; 125 g ai/ha,0
same,"Plant response rating, Morningglory",[8]; 500 g ai/ha,0
same,"Plant response rating, Ducksalad",[9]; 62 g ai/ha,0
same,"Plant response rating, Ducksalad",[9]; 250 g ai/ha,30
same,"Plant response rating, Velvetleaf",[10]; 125 g ai/ha,0
same,"Plant response rating, Velvetleaf",[10]; 500 g ai/ha,0
same,"Plant response rating, Sedge, Umbrella",[11]; 62 g ai/ha,20
same,"Plant response rating, Sedge, Umbrella",[11]; 250 g ai/ha,30
same,"Plant response rating, Foxtail, Giant",[12]; 125 g ai/ha,0
same,"Plant response rating, Foxtail, Giant",[12]; 500 g ai/ha,0
same,"Plant response rating, Pigweed",[13]; 125 g ai/ha,0
same,"Plant response rating, Pigweed",[13]; 500 g ai/ha,0
same,"Plant response rating, Crabgrass, Large",[14]; 125 g ai/ha,0
same,"Plant response rating, Crabgrass, Large",[14]; 500 g ai/ha,0
same,"Plant response rating, Wheat",[15]; 125 g ai/ha,0
same,"Plant response rating, Wheat",[15]; 500 g ai/ha,0
same,"Plant response rating, Foxtail, Giant",[16]; 125 g ai/ha,0
same,"Plant response rating, Foxtail, Giant",[16]; 500 g ai/ha,0
same,"Plant response rating, Crabgrass, Large",[17]; 125 g ai/ha,0
same,"Plant response rating, Crabgrass, Large",[17]; 500 g ai/ha,0
same,"Plant response rating, Wheat",[18]; 125 g ai/ha,0
same,"Plant response rating, Wheat",[18]; 500 g ai/ha,0
same,"Plant response rating, Pigweed",[19]; 125 g ai/ha,0
same,"Plant response rating, Pigweed",[19]; 500 g ai/ha,0
